Measurements from PubChem BioAssay (NCI).
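Test compounds were applied to cells in 96-well plates for 48 hours at 5 doses. GI50 is the concentration that inhibits growth by half. TGI: concentration producing complete growth inhibition.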

Key:
Test in all cases: growth of human tumour cells (NCI), 48 h; in the data active = GI50 below about 0.43 µM; inactive = the rest
786-0 renal = test system: 786-0 renal
A498 renal = test system: A498 renal
A549 NSCLC = test system: A549 NSCLC
ACHN renal = test system: ACHN renal
BT-549 breast = test system: BT-549 breast
CAKI-1 renal = test system: CAKI-1 renal
COLO 205 colon = test system: COLO 205 colon
DU-145 prostate = test system: DU-145 prostate
EKVX NSCLC = test system: EKVX NSCLC
HCC-2998 colon = test system: HCC-2998 colon
HCT-116 colon = test system: HCT-116 colon
HCT-15 colon = test system: HCT-15 colon
HOP-62 NSCLC = test system: HOP-62 NSCLC
HOP-92 NSCLC = test system: HOP-92 NSCLC
HS 578T breast = test system: HS 578T breast
HT29 colon = test system: HT29 colon
IGROV1 ovarian = test system: IGROV1 ovarian
KM12 colon = test system: KM12 colon
LOX IMVI melanoma = test system: LOX IMVI melanoma
M14 melanoma = test system: M14 melanoma
MALME-3M melanoma = test system: MALME-3M melanoma
MCF7 breast = test system: MCF7 breast
MDA-MB-231 breast = test system: MDA-MB-231 breast
MDA-MB-435 = test system: MDA-MB-435
NCI-H226 lung = test system: NCI-H226 lung
NCI-H23 lung = test system: NCI-H23 lung
NCI-H460 lung = test system: NCI-H460 lung
NCI-H522 lung = test system: NCI-H522 lung
NCI/ADR-RES ovarian = test system: NCI/ADR-RES ovarian
OVCAR-3 ovarian = test system: OVCAR-3 ovarian
OVCAR-4 ovarian = test system: OVCAR-4 ovarian
OVCAR-5 ovarian = test system: OVCAR-5 ovarian
OVCAR-8 ovarian = test system: OVCAR-8 ovarian
PC-3 prostate = test system: PC-3 prostate
RPMI-8226 leukemia = test system: RPMI-8226 leukemia
RXF 393 renal = test system: RXF 393 renal
SF-268 CNS = test system: SF-268 CNS
SF-295 CNS = test system: SF-295 CNS
SF-539 CNS = test system: SF-539 CNS
SK-MEL-2 melanoma = test system: SK-MEL-2 melanoma
SK-MEL-28 melanoma = test system: SK-MEL-28 melanoma
SK-MEL-5 melanoma = test system: SK-MEL-5 melanoma
SN12C renal = test system: SN12C renal
SNB-19 CNS = test system: SNB-19 CNS
SNB-75 CNS = test system: SNB-75 CNS
SR leukemia = test system: SR leukemia
SW-620 colon = test system: SW-620 colon
T-47D breast = test system: T-47D breast
TK-10 renal = test system: TK-10 renal
UACC-257 melanoma = test system: UACC-257 melanoma
UACC-62 melanoma = test system: UACC-62 melanoma
UO-31 renal = test system: UO-31 renal
CCRF-CEM leukemia = test system: CCRF-CEM leukemia
HL-60(TB) leukemia = test system: HL-60(TB) leukemia
K-562 leukemia = test system: K-562 leukemia
SK-OV-3 ovarian = test system: SK-OV-3 ovarian
U251 CNS = test system: U251 CNS

COc1cccc2c(=O)c3c(sc12)c(N1CCNCC1)nc1ccccc13
4.45 µM: TGI (UACC-257 melanoma)
3.45 µM: TGI (NCI/ADR-RES ovarian) | TGI (SF-268 CNS)
3.1 µM: TGI (NCI-H23 lung)
3.39 µM: TGI (786-0 renal) | TGI (SNB-19 CNS)
3.26 µM: TGI (HCC-2998 colon)
5.8 µM: TGI (RPMI-8226 leukemia)
2.98 µM: TGI (SNB-75 CNS)
inactive: GI50 (786-0 renal) 1.73 µM | GI50 (A498 renal) 1.69 µM | GI50 (A549 NSCLC) 1.81 µM | GI50 (ACHN renal) 1.6 µM | GI50 (BT-549 breast) 13.3 µM | GI50 (CAKI-1 renal) 1.64 µM | GI50 (COLO 205 colon) 2.07 µM | GI50 (DU-145 prostate) 1.72 µM | GI50 (EKVX NSCLC) 1.62 µM | GI50 (HCC-2998 colon) 1.7 µM | GI50 (HCT-116 colon) 1.55 µM | GI50 (HCT-15 colon) 1.53 µM | GI50 (HOP-62 NSCLC) 1.87 µM | GI50 (HOP-92 NSCLC) 1.24 µM | GI50 (HS 578T breast) 1.7 µM | GI50 (HT29 colon) 1.46 µM | GI50 (IGROV1 ovarian) 1.41 µM | GI50 (KM12 colon) 1.79 µM | GI50 (LOX IMVI melanoma) 1.56 µM | GI50 (M14 melanoma) 1.86 µM | GI50 (MALME-3M melanoma) 1.65 µM | GI50 (MCF7 breast) 1.57 µM | GI50 (MDA-MB-231 breast) 1.7 µM | GI50 (MDA-MB-435) 1.76 µM | GI50 (NCI-H226 lung) 1.58 µM | GI50 (NCI-H23 lung) 1.62 µM | GI50 (NCI-H460 lung) 1.72 µM | GI50 (NCI-H522 lung) 1.79 µM | GI50 (NCI/ADR-RES ovarian) 1.75 µM | GI50 (OVCAR-3 ovarian) 1.67 µM | GI50 (OVCAR-4 ovarian) 1.8 µM | GI50 (OVCAR-5 ovarian) 1.79 µM | GI50 (OVCAR-8 ovarian) 2.43 µM | GI50 (PC-3 prostate) 1.62 µM | GI50 (RPMI-8226 leukemia) 2.39 µM | GI50 (RXF 393 renal) 1.53 µM | GI50 (SF-268 CNS) 1.75 µM | GI50 (SF-295 CNS) 1.82 µM | GI50 (SF-539 CNS) 1.75 µM | GI50 (SK-MEL-2 melanoma) 1.94 µM | GI50 (SK-MEL-28 melanoma) 1.86 µM | GI50 (SK-MEL-5 melanoma) 1.7 µM | GI50 (SN12C renal) 1.54 µM | GI50 (SNB-19 CNS) 1.79 µM | GI50 (SNB-75 CNS) 1.56 µM | GI50 (SR leukemia) 0.622 µM | GI50 (SW-620 colon) 1.49 µM | GI50 (T-47D breast) 1.9 µM | GI50 (TK-10 renal) 1.85 µM | GI50 (UACC-257 melanoma) 2.09 µM | GI50 (UACC-62 melanoma) 1.73 µM | GI50 (UO-31 renal) 1.07 µM
3.05 µM: TGI (RXF 393 renal)
3.37 µM: TGI (SF-295 CNS)
3.23 µM: TGI (MDA-MB-435)
3.32 µM: TGI (MDA-MB-231 breast)
3.09 µM: TGI (HCT-15 colon) | TGI (SK-MEL-5 melanoma) | TGI (SW-620 colon)
4.26 µM: TGI (A549 NSCLC)
3.19 µM: TGI (DU-145 prostate) | TGI (UACC-62 melanoma)
27.5 µM: TGI (BT-549 breast)
3.14 µM: TGI (A498 renal)
2.73 µM: TGI (HOP-92 NSCLC)
3.12 µM: TGI (OVCAR-3 ovarian)
3.06 µM: TGI (SN12C renal)
3.4 µM: TGI (SK-MEL-28 melanoma)
3.71 µM: TGI (HS 578T breast)
3.88 µM: TGI (SK-MEL-2 melanoma)
3.01 µM: TGI (CAKI-1 renal) | TGI (LOX IMVI melanoma)
3.18 µM: TGI (NCI-H226 lung)
3.24 µM: TGI (MALME-3M melanoma) | TGI (OVCAR-5 ovarian)
4.57 µM: TGI (T-47D breast)
3.69 µM: TGI (NCI-H522 lung)
4.72 µM: TGI (COLO 205 colon)
3.41 µM: TGI (KM12 colon) | TGI (NCI-H460 lung)
3.48 µM: TGI (M14 melanoma)
2.32 µM: TGI (UO-31 renal)
6.5 µM: TGI (OVCAR-8 ovarian)
3.44 µM: TGI (TK-10 renal)
3.21 µM: TGI (SF-539 CNS)
4.3 µM: TGI (HOP-62 NSCLC)
3.28 µM: TGI (HCT-116 colon) | TGI (MCF7 breast) | TGI (PC-3 prostate)
2.88 µM: TGI (IGROV1 ovarian)
3.17 µM: TGI (EKVX NSCLC)
2.97 µM: TGI (ACHN renal)
3.11 µM: TGI (HT29 colon)
> 100 µM: TGI (SR leukemia)
3.62 µM: TGI (OVCAR-4 ovarian)

CC1=C(C(=O)Nc2ccc(F)c(Cl)c2)C(c2cccc(O)c2)NC(=O)N1 (configuration not stated)
inactive: GI50 (786-0 renal) > 100 µM | GI50 (A498 renal) 5.04 µM | GI50 (A549 NSCLC) > 100 µM | GI50 (ACHN renal) > 100 µM | GI50 (BT-549 breast) 67 µM | GI50 (CAKI-1 renal) > 100 µM | GI50 (CCRF-CEM leukemia) 79.3 µM | GI50 (COLO 205 colon) > 100 µM | GI50 (DU-145 prostate) > 100 µM | GI50 (EKVX NSCLC) 78.1 µM | GI50 (HCC-2998 colon) > 100 µM | GI50 (HCT-116 colon) 70.7 µM | GI50 (HCT-15 colon) > 100 µM | GI50 (HL-60(TB) leukemia) 6.81 µM | GI50 (HOP-62 NSCLC) > 100 µM | GI50 (HOP-92 NSCLC) 47.5 µM | GI50 (HS 578T breast) 26.9 µM | GI50 (HT29 colon) 81.6 µM | GI50 (IGROV1 ovarian) 36.1 µM | GI50 (K-562 leukemia) 73.5 µM | GI50 (KM12 colon) 61.4 µM | GI50 (LOX IMVI melanoma) > 100 µM | GI50 (M14 melanoma) 71.4 µM | GI50 (MCF7 breast) 58.8 µM | GI50 (MDA-MB-231 breast) 46.2 µM | GI50 (MDA-MB-435) 59.7 µM | GI50 (NCI-H226 lung) 85.9 µM | GI50 (NCI-H23 lung) > 100 µM | GI50 (NCI-H460 lung) > 100 µM | GI50 (NCI-H522 lung) 49 µM | GI50 (NCI/ADR-RES ovarian) > 100 µM | GI50 (OVCAR-3 ovarian) 71.8 µM | GI50 (OVCAR-5 ovarian) > 100 µM | GI50 (OVCAR-8 ovarian) 62.7 µM | GI50 (PC-3 prostate) 63.9 µM | GI50 (RPMI-8226 leukemia) 55.1 µM | GI50 (RXF 393 renal) > 100 µM | GI50 (SF-268 CNS) 98 µM | GI50 (SF-295 CNS) > 100 µM | GI50 (SF-539 CNS) > 100 µM | GI50 (SK-MEL-2 melanoma) 29.5 µM | GI50 (SK-MEL-28 melanoma) 58.9 µM | GI50 (SK-MEL-5 melanoma) 45.1 µM | GI50 (SK-OV-3 ovarian) > 100 µM | GI50 (SN12C renal) > 100 µM | GI50 (SNB-19 CNS) > 100 µM | GI50 (SNB-75 CNS) 17.8 µM | GI50 (SW-620 colon) > 100 µM | GI50 (T-47D breast) > 100 µM | GI50 (TK-10 renal) > 100 µM | GI50 (U251 CNS) > 100 µM | GI50 (UACC-257 melanoma) 54.3 µM | GI50 (UACC-62 melanoma) 48.7 µM | GI50 (UO-31 renal) 71.4 µM
68.3 µM: TGI (SNB-75 CNS)
> 100 µM: TGI (786-0 renal) | TGI (A498 renal) | TGI (A549 NSCLC) | TGI (ACHN renal) | TGI (BT-549 breast) | TGI (CAKI-1 renal) | TGI (CCRF-CEM leukemia) | TGI (COLO 205 colon) | TGI (DU-145 prostate) | TGI (EKVX NSCLC) | TGI (HCC-2998 colon) | TGI (HCT-116 colon) | TGI (HCT-15 colon) | TGI (HL-60(TB) leukemia) | TGI (HOP-62 NSCLC) | TGI (HOP-92 NSCLC) | TGI (HS 578T breast) | TGI (HT29 colon) | TGI (IGROV1 ovarian) | TGI (K-562 leukemia) | TGI (KM12 colon) | TGI (LOX IMVI melanoma) | TGI (M14 melanoma) | TGI (MCF7 breast) | TGI (MDA-MB-231 breast) | TGI (MDA-MB-435) | TGI (NCI-H226 lung) | TGI (NCI-H23 lung) | TGI (NCI-H460 lung) | TGI (NCI-H522 lung) | TGI (NCI/ADR-RES ovarian) | TGI (OVCAR-3 ovarian) | TGI (OVCAR-5 ovarian) | TGI (OVCAR-8 ovarian) | TGI (PC-3 prostate) | TGI (RPMI-8226 leukemia) | TGI (RXF 393 renal) | TGI (SF-268 CNS) | TGI (SF-295 CNS) | TGI (SF-539 CNS) | TGI (SK-MEL-2 melanoma) | TGI (SK-MEL-28 melanoma) | TGI (SK-MEL-5 melanoma) | TGI (SK-OV-3 ovarian) | TGI (SN12C renal) | TGI (SNB-19 CNS) | TGI (SW-620 colon) | TGI (T-47D breast) | TGI (TK-10 renal) | TGI (U251 CNS) | TGI (UACC-257 melanoma) | TGI (UACC-62 melanoma) | TGI (UO-31 renal)
